Test [1] concerns the target T1, wt SpsB (Staphylococcus aureus, UniProt P0A070).
T1 construct: recombinantly expressed full-length S. aureus SpsB (wt) or mutants; made in house; host or cells: E. coli BL21(DE3)pLysS, membrane fraction
Briefly: FRET-based signal peptidase assay with membrane-bound SpsB (wt). The test is classed as biochemical, S. aureus. As to the method:
For preparation of E. coli membrane fractions harboring overexpressed S. aureus SpsB, E. coli BL21(DE3) pLysS cells harboring pET-55-DEST-fl-SpsB or respective mutant plasmids (F67A, Y75A, F158A, Q165A, F67A-Y75A, F67A-F158A, Y75A-F158A, F67A-Y75A-F158A) were grown in LB medium (supplemented with Ampicillin (100 µg/mL) and Chloramphenicol (34 µg/mL)) at 37°C (200 rpm) to OD600 ≈ 0.6 and protein overexpression was induced by the addition of isopropyl-1-thio-β-galactopyranoside (IPTG, 0.5 mM). After incubation (22 °C, 200 rpm, 3 h), cells were harvested by centrifugation (6000 × g, 4 °C, 10 min) and subsequently washed with PBS. The cell pellet was resuspended in 5 mL Tris-HCl buffer (50 mM, pH = 7.5) and lysed using a bead beater homogenizer (3 cycles: 5500 rpm for 45 s, 30 s cooling; Precellys Ceramic Kit CK01L, 7.0 mL tubes; Precellys 24 Homogenizer, Bertin Technologies). The lysate was centrifuged (12,000 × g, 4 °C, 10 min) to remove intact cells and debris. Membranes were collected from supernatant (39,000 × g, 4 °C, 75 min) and resuspended in ice-cold sodium phosphate buffer (50 mM, pH 7.5). Protein concentration was measured using the Pierce BCA Protein assay kit (Thermo Fisher Scientific, Pierce Biotechnology) and snap-frozen aliquots were stored at −80 °C.
Signal cleavage activities of recombinantly expressed full-length S. aureus SpsB (wt) or mutants (F67A, Y75A, F158A, Q165A, F67A-Y75A, F67A-F158A, Y75A-F158A, F67A-Y75A-F158A) in E. coli membranes were measured using a Förster Resonance Energy Transfer (FRET) assay as previously described[20],[36].
A synthetic peptide substrate based on SceD modified by 4-(4- dimethylaminophenylazo)benzoic (DABCYL) acid and 5-((2-aminoethyl)amino)-1- naphthalenesulfonic acid (EDANS) was used (DABCYL-[…]-EDANS, AnaSpec) as FRET substrate. Assays were performed with overexpressed wildtype SpsB (wt) or mutant (F67A, Y75A, F158A, Q165A, F67A-Y75A, F67A-F158A, Y75A-F158A, F67A-Y75A-F158A) in E. coli membranes. As controls for background activity, respective E. coli membranes without IPTG induction were used (see Experimental procedure “Preparation of E. coli membrane (control) fractions. Membranes containing recombinant wildtype SpsB or mutant (50 µg/mL membrane concentration, 100 µL/well final volume, sodium phosphate buffer, 50 mM, pH 7.5, addition of detergent if indicated; final concentrations in buffer: 0.1% CHAPS, 0.001% NP-40 or 0.1% Tween) were pre-treated with PK150, Arylomycin A4 or DMSO as a control (final concentration 1%) at 37 °C for 5 min. After addition of FRET substrate (10 µM final substrate concentration; final DMF concentration from substrate stock 1%), fluorescence turnover was monitored by an Infinite™ M Nano Tecan 200Pro reader (340 nm excitation and 510 nm emission wavelengths, fluorescence top reading mode) at 37 °C for at least 2 h.
The assay was performed in technical triplicates for at least three biologically independent experiments (n ≥ 3). Significance of cleavage activity was determined via a two-tailed Students t-test for comparison of membranes treated with DMSO to PK150.

Test [2] deals with T2, SpsB Q165A mutant (Staphylococcus aureus, UniProt P0A070, Q165A).
T2 construct: recombinantly expressed full-length S. aureus SpsB (wt) or mutants; made in house; host or cells: E. coli BL21(DE3)pLysS, membrane fraction
T2 sequence (P0A070 1-191 Q165A): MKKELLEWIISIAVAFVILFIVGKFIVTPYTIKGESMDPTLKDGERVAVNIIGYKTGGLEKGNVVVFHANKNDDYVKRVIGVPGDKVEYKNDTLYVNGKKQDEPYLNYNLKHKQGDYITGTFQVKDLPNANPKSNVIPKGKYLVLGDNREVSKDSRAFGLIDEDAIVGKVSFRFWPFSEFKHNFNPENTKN
Briefly: FRET-based signal peptidase assay with membrane-bound SpsB, Q165A mutant. The test is classed as biochemical, S. aureus. The note with it: 10 µM; relative to DMSO. As to the method: Cloning of full-length SpsB (fl-SpsB) was performed using the Invitrogen Gateway Technology in previous works by Le et al.. fl-SpsB was cloned into the destination vector pET-55-DEST (Novagen) and transformed into chemically competent E. coli BL21(DE3)pLysS cells (Promega) to prevent leaky protein overexpression. Plasmid DNA of wildtype SpsB pET-55-DEST-fl-SpsB was purified using a plasmid Miniprep Kit (peqGOLD Plasmid Miniprep Kit II, VWR Peqlab) according to the manufacturer’s instructions and used as template for all single point mutations (F67A, Y75A, F158A, Q165A). […]
For preparation of E. coli membrane fractions harboring overexpressed S. aureus SpsB, E. coli BL21(DE3) pLysS cells harboring pET-55-DEST-fl-SpsB or respective mutant plasmids (F67A, Y75A, F158A, Q165A, F67A-Y75A, F67A-F158A, Y75A-F158A, F67A-Y75A-F158A) were grown in LB medium (supplemented with Ampicillin (100 µg/mL) and Chloramphenicol (34 µg/mL)) at 37°C (200 rpm) to OD600 ≈ 0.6 and protein overexpression was induced by the addition of isopropyl-1-thio-β-galactopyranoside (IPTG, 0.5 mM). […] Protein concentration was measured using the Pierce BCA Protein assay kit (Thermo Fisher Scientific, Pierce Biotechnology) and snap-frozen aliquots were stored at −80 °C. […]

The target of test [3] is T1, wt SpsB. The note with it: cited from earlier work.
For test [4], the system named is S. aureus NCTC 8325. Further details: method as in Le et al., Nat Chem. 2020. The note with it: ref Le et al., Nat Chem. 2020; cited from earlier work.

≈ marks a conversion by molar mass, not a printed value. Where “and” joins values, the source holds several entries; their conditions need not be identical. Equal values may be shown once.

A word on the MIC: it is the least concentration at which growth counts as inhibited.

As to `O=C(Nc1ccc2c(c1)OC(F)(F)O2)Nc1ccc(Cl)c(C(F)(F)F)c1` [PK150, (4-Chloro-3-(trifluoromethyl)phenyl)-3-(2,2-difluorobenzo[d][1,3]dioxol-5-yl)urea], the “allosteric stimulation of SpsB activity” value in test [1] (10 µM in E. coli induced SpsB membranes) was found to be 170%. In addition, in test [1] (10 µM, relative to DMSO), the “elevated activity in wildtype SpsB” value came to 1.7 fold. Besides, the “activation of wt SpsB in presence of detergents” value in test [1] (0.01% Tween, 0.001% NP-40, 0.1% CHAPS (<cmc), PK150 10 µM) was “Activation of wt SpsB with PK150 could still be shown for all detergents”. The activity at 0.195 µM in test [1] (PK150 0.195uM, replicates, read-out: wt PK150 (normalized activity)) was 111%. The activity at 0.39 µM in test [1] (PK150 0.39uM, replicates, read-out: wt PK150 (normalized activity)) came out at 127%. For the same compound, the activity at 1.5625 µM in test [1] (PK150 1.5625uM, replicates, read-out: wt PK150 (normalized activity)) was determined as 131%. In addition, in test [1] (PK150 10 µM, substrate cleavage rate normalized to DMSO (100), single biological replicates), the “wt PK150 10 µM norm. value” was 153.034 and 181.137 and 173.665 and 173.73 and 163.958 and 182.132. Besides, the “overactivation at higher compound concentrations” value in test [1] (higher compound concentrations (Figure 3a)) is listed as “up to 250%”. In addition, the “elevated activity in Q165A mutant” value in test [2] came out at 1.7 fold. Besides, the “overactivation compared to DMSO” value in test [3] (50 µM compound concentration, ref Le et al., Nat Chem. 2020) was 250%. For the same compound, the “overactivation of SpsB” value in test [3] is given as “up to 3 fold”. In addition, the MIC in test [4] is listed as 0.3 µM (≈ 0.118 µg/mL).
